Assay results from patent US8729034B2, “Pharmaceutical composition having virucidal and spermicidal activity” (priority 2007, dated 2014).

Tests used:
[1] = test system: Salmonella typhimurium TA100; test: Bacterial reverse mutation assay (MUTA-CHROMOPLATE kit); conditions: Background = 20, Blank = 0
Text: Ac-B was examined for its ability to produce mutations/revert mutations in a bacterial reverse mutation assay using amino acid-requiring strain of Salmonella typhimurium (S. typhimurium) TA100 and the result was compared with a known mutagen (Na-azide). A commercial kit (The MUTA-CHROMOPLATE) from M/s Environmental Biodetection Products Inc. Ontario, Canada, was used. Suspensions of bacterial cells were exposed to the test substance in the presence and in the absence of an exogenous metabolic activation system. After 5 days of incubation, revertant colonies were detected by the change of colour from blue to yellow on solvent control plates. All yellow, partially yellow or turbid wells were scored as positive, while all purple wells were scored as negative. Number of positive wells for each plate was recorded, their number was counted and compared to that of spontaneous revertant colonies. The “Background” (i.e. no test material added) plate was used as reference for the level of spontaneous or background mutation of the assay organism. The statistical difference was determined using a table provided with the kit.
Score of mutagenicity as per the set criteria of Muta-Chromoplate test kit.

human spermatozoa [2] = conditions: cited from earlier work
human spermatozoa [3] = test: Sander & Cramer spermicidal assay (in vitro); type: cell-based; conditions: Human spermatozoa (N = 5); weakest concentration immobilizing all spermatozoa within 20 seconds
Protocol: (§1) The exudates/liquefied human semen samples were suspended in BWW medium (pre equilibrated at 37 degree C.). The spermatozoa with forward motility were separated from immotile or sluggishly motile cells by the swim-up technique and were allowed to disperse evenly within a CO2 incubator at 37 degree C. At least five aliquots from each sample was used to prepare the working spermatozoa suspension. The swim up procedure was as follows:
(§2) Pre equilibrated BWW medium (1.25 ml) was gently layered over cauda-exudates or liquefied human semen (1 ml) in a sterile 15 ml conical-based centrifuge tube. The tube was inclined at an angle of 45 degree and incubated for 1 hour at 37 degree C. in a CO2-incubator. It was then gently returned to the upright position and the uppermost 1 ml medium with a turbid appearance was removed. This aliquot of motile cells was pooled from each set, then diluted with same volumes of pre equilibrated BWW medium, centrifuged at 500 g for 5 minutes and finally resuspended in 1 ml pre equilibrated BWW medium to obtain a working suspension. The sperm cells were counted in a Makler chamber (Zygotec Systems, Springfield, M A, USA) and finally a working spermatozoa suspension having concentration of 25 to 30×10^6 cells/ml was prepared.
(§3) For in vitro assay of spermicidal effect, sperms collected from proven male rats and mice, and motile spermatozoa from liquefied human semen were used.
(§4) The assay was done following the Sander & Cramer assay method. Two hundred micro liter (200 microliters) of working spermatozoa suspension was added to 1 ml solution of test material in BWW medium and mixed on a light vortex for 10 seconds. A wet mount was immediately prepared on a clean microscopy glass slide and examined (at ×100) under a phase contrast microscope (Leitz, Biomed). The weakest concentration that immobilized all spermatozoa within 20 seconds of mixing was recorded as MEC. At least five fields were examined for each wet mount preparation. The observation was repeated with five individual spermatozoa suspension for each concentration of test compound solution. For negative control, saponin solutions were replaced by equal volume of BWW medium, while Nonoxynol 9 was used as positive control.

rat spermatozoa = test: Sander & Cramer spermicidal assay (in vitro); type: cell-based; conditions: Rat spermatozoa (N = 10); all immobilized within 20 seconds
Protocol: (§5) Sexually mature male mice and rats were autopsied following euthanasia by an overdose of Ketamin (≧200 mg/kg body weight; injected i.p.) and their cauda epididymis were excised. Working suspension of animal spermatozoa was prepared with the exudates obtained after careful pricking of the cauda epididymis with an injection needle (18 G) and the exudates were collected in a conical centrifuge tube.
as §1, §2, §3, §4

mouse spermatozoa = test: Sander & Cramer spermicidal assay (in vitro); type: cell-based; conditions: Mouse spermatozoa (N = 10); all immobilized within 20 seconds
Protocol: as §5, §1, §2, §3, §4

| Compound | No. of '+' wells (Muta-Chromoplate score) [1] | MEC for N-9 (human spermatozoa [2]; closest prior arts) | MEC of N-9 for spermicidal action (human spermatozoa [2]; comparison value in concluding remarks) | MEC as per Sander and Cramer Test (human spermatozoa [3]) [microgram per ml] | MEC as per Sander and Cramer Test (rat spermatozoa) | MEC as per Sander and Cramer Test (mouse spermatozoa) |
| --- | --- | --- | --- | --- | --- | --- |
| [N-]=[N+]=[N-].[Na+] [Na-azide, reference compound] | 74 |  |  |  |  |  |
| isononyl-phenyl-polyoxyethylene (9) ether [Nonoxynol 9, reference compound] |  | 200-500 microgram per ml | 200-500 microgram | >350 | 350 (±10) microgram per ml | 350 (±10) microgram per ml |
